These results are taken from US12648924B2, “Prevention and treatment of effects of aging and age-associated disorders with ketone supplementation” (priority 2020, dated 2026).

Data set [1] in a line: Tolerability of KDE incorporated in food, bodyweight and food intake (pilot work, Experiment 4b). Format: in vivo, VM/Dk mice. From the text: (§1) Food Intake and Ketone Diester Administration: Standard diet dry food (2018 Teklad Global 18% Protein Rodent Diet, Harlan) was mixed with deionized water (1 g dry food/mL deionized water) into a consistent paste and placed on a 100×15 mm dish. Food intake was tracked daily at the same time (7:00-9:00) and replaced every other day to ensure fresh food. Due to sinusoidal/oscillatory changes in food intake observed every other day (2-day pattern), a 4-day (2×2-day pattern) average was taken at EOL and baseline to calculate changes in anorexic symptoms. KDE was chemically synthesized with physical properties, preparation, and analysis described previously. For evaluation of KDE effect on anorexia, food intake was tracked daily at the same time (7:00-9:00). […] Consequently, upon VM-M3 inoculation, KDE+VM-M3 received ad libitum 0% KDE/weight day 1, 5% KDE day 2, 10% KDE day 3, 15% KDE day 4, 20% KDE day 5, 25% KDE day 6, and 30% KDE day 7 through 21 on top of HPSD. VM-M3 and Sham received HPSD ad libitum. As pilot work indicated potential water evaporation in food paste in ventilated cages, dehydration standard curve was calculated across various volumes of plated food (5, 10, 25.0, 50.0, 100 g/food) with and without KDE over a two-day period. Standard curve equation [water evaporated=0.2472 (original grams of water)+1.364] was used to correct for amount of dehydration prior to calculating caloric intake. For LPS experiments, 1×4 mL/kg KDE gavage or 1×4 mL/kg water gavage were administered for KDE+LPS and LPS-only, respectively. […]
(§2) To determine whether KDE could alter systemic metabolism, blood metabolites were measured at baseline following a standard diet and after a 4-day transition to a standard diet supplemented with 20% KDE, 25% KDE, or 30% KDE. […] To determine whether KDE could alter metabolism in CACS, blood ketones, glucose, and lactate were measured weekly. […] Thus, to determine if KDE altered tumor burden, in vivo bioluminescence imaging was analyzed weekly.

The nature of data set [2]: Blood metabolites after 4-day transition to standard diet supplemented with KDE (Experiment 4a). The note with it: for blood ketone levels: vs baseline. Format: in vivo, VM/Dk mice.
Description: as §1, with “respectively. Ab libitum food intake was tracked daily during initial analysis with caloric restriction reported as the percent reduction in 24-hour caloric intake from pre- to post-LPS administration. Pair-feeding was conducted during subsequent analysis.” for “respectively.”
Metabolic Biomarkers: Blood glucose and R β-hydroxybutyrate were measured using Precision Xtra™ Blood Glucose & Ketone Monitoring System (Abbott Laboratories, Abbott Park, IL). Blood lactate concentration was measured using Lactate Plus Lactate Meter (Nova Biomedical). IGF-1 and Insulin were relabeled for blinded analysis and subsequently analyzed using Luminex 100 system (Luminex, Austin, TX) with R&D Systems Mouse 1-Plex Luminex Assay (R&D Systems, Minneapolis, MN) and Milliplex Mouse Multiplex Kit (Millipore, St. Charles, MO), respectively, using manufacturer's protocol.
as §2

“Also recorded” adds a separate entry of the source.

Consider `CC(=O)CC(=O)OCCC(C)OC(=O)CC(C)=O` (stereo not shown) [KDE, R/S 1,3-butanediol acetoacetate diester], for which the “ad libitum food intake” value in data set [1] (20-30% by weight KDE incorporated in standard diet, pilot work) was “reductions in ad libitum food intake”. Moreover, the “tolerability as indicated by bodyweight maintenance” value in data set [1] (30% KDE reached incrementally (5%/day) over 7 days) is “well-tolerated”. Further, the bodyweight across time result in data set [1] (incremental incorporation 0-30% KDE/weight at 5% KDE/weight/day, highly palatable standard diet) is “did not result in changes in bodyweight across time”. Also, the blood ketone levels result is given as “significant elevations” in data set [2] (20% KDE in standard diet, 4-day transition) and “significant elevations; also recorded: highest ketone elevations” in data set [2] (30% KDE in standard diet, 4-day transition). Also, the blood glucose levels entry in data set [2] (30% KDE in standard diet, compared with 20% and 25% KDE) is on record as “greatest reduction in glucose”; in data set [2] (all KDE groups (20%, 25%, 30% KDE in standard diet), 4-day transition), “significant reductions”.
